Experimental data taken from patent US20240360174A1, “CELL-PENETRATING PEPTIDE SEQUENCES” (Ohio State Innovation Foundation, priority 2016, published 2024).
Bridge positions count the residues as written; N and C are the ends. Square brackets hold non-standard residues; d marks the D form. Ends that are not written are not given here. 2Nal = N[C@@H](Cc1ccc2ccccc2c1)C(=O)O; Pip = O=C(O)[C@@H]1CCCCN1; Dap = NC[C@H](N)C(=O)O

Test system: HeLa cells
Experiment: Cellular uptake / cytosolic delivery efficiency of NF-labelled peptides by flow cytometry
Type: cell-based
Conditions: 2 h, 5 mM naphthofluorescein-labelled peptide, relative to CPP 1 (100%), mean ± S.D. of three independent experiments
Source text: Absolute cytosolic delivery efficiency is the ratio of cytosolic concentration of a CPP (or a CPP-cargo conjugate) over the concentration of the CPP (or the CPP-cargo conjugate) in the growth medium. Relative cytosolic delivery efficiency refers to the concentration of a CPP in the cytosol compared to the concentration of a control CPP in the cytosol. Quantification can be achieved by fluorescently labeling the CPP (e.g., with a FTIC dye) and measuring the fluorescence intensity using techniques well-known in the art.
In particular embodiments, relative cytosolic delivery efficiency is determined by comparing (i) the amount of a CPP of the invention internalized by a cell type (e.g., HeLa cells) to (ii) the amount of the control CPP internalized by the same cell type. To measure relative cytosolic delivery efficiency, the cell type may be incubated in the presence of a cell-penetrating peptide of the invention for a specified period of time (e.g., 30 minutes, 1 hour, 2 hours, etc.) after which the amount of the CPP internalized by the cell is quantified using methods known in the art, e.g., fluorescence microscopy. Separately, the same concentration of the control CPP is incubated in the presence of the cell type over the same period of time, and the amount of the control CPP internalized by the cell is quantified.
To determine cellular uptake efficiency of the CPPs disclosed herein, HeLa cells were cultured in 12-well plates (1.5×10^5 cells per well) overnight. The cells were incubated for 2 h with […] naphthofluorescein (NF)-labelled peptide in cellular media. At the end of incubation, the cells were washed with DPBS twice, detached from the plate with 0.25% trypsin, diluted into clear DMEM, pelleted at 250 g for 5 min, washed twice with DPBS, resuspended in DPBS, and analyzed on a BD FACS LSR II flow cytometer. For NF-labelled peptides, a 633-nm laser was used for excitation and the fluorescence emission was analyzed in the APC channel. Absolute cellular uptake efficiency was determined by comparing the concentration (via fluorescence intensity) of the CPP in the cytosol to the concentration in the extracellular medium.

Substance	Relative Cytosolic Delivery Efficiency
Ac-(Dap-fFRrRrD) (Ac-[Dap][dF]FR[dR]R[dR]D; not fully specified (bridges); printed as Ac-(Dap-fFRrRrD); also: cyclic, closure sites not given here) [SAR 67]	126 ± 33%
Ac-(Lys-fFRrRrD) (K[dF]FR[dR]R[dR]D; not fully specified (N-terminus, bridges); printed as Ac-(Lys-fFRrRrD); also: cyclic, closure sites not given here) [SAR 66]	129 ± 9%
SAR 68 (CWWRRRRC; disulfide 1-8)	51%
SAR 69 (CWWVRRRRC; disulfide 1-9)	67%
SAR 70 (CFWRRRRC; disulfide 1-8)	49%
SAR 71 (CWWWRRRC; disulfide 1-8)	135%
cyclo(FFFRAQ) (cyclic) [SAR 26]	52 ± 2%
cyclo(FFFRRQ) (cyclic) [SAR 27]	125 ± 25%
cyclo(FFFRRRQ) (cyclic) [SAR 34]	231 ± 43%
cyclo(FFFRRRRQ) (cyclic) [SAR 45]	122 ± 20%
cyclo(FFFRRRRRQ (cyclic) [SAR 53]	145 ± 27%
cyclo(FFFRRRRRR (FFFRRRRRRQ; cyclic) [SAR 54]	141 ± 10%
cyclo(FFRFRRQ) (cyclic) [SAR 38]	106 ± 22%
cyclo(FFRRFRQ) (cyclic) [SAR 39]	86 ± 12%
cyclo(FFRRFRRQ) (cyclic) [SAR 50]	46 ± 2%
cyclo(FFRRRFQ) (cyclic) [SAR 35]	158 ± 21%
cyclo(FFRRRQ) (cyclic) [SAR 19]	89 ± 34%
cyclo(FFRRRRFQ) (cyclic) [SAR 51]	162 ± 16%
cyclo(FFRRRRQ) (cyclic) [SAR 28]	89 ± 27%
cyclo(FFRrRQ) (cyclo(FFR[dR]RQ); SMILES N=C(N)NCCC[C@@H]1NC(=O)[C@H](Cc2ccccc2)NC(=O)[C@H](Cc2ccccc2)NC(=O)[C@H](CCC(N)=O)NC(=O)[C@H](CCCNC(=N)N)NC(=O)[C@@H](CCCNC(=N)N)NC1=O) [SAR 21]	59 ± 7%
cyclo(FFrRrQ) (cyclo(FF[dR]R[dR]Q); SMILES N=C(N)NCCC[C@@H]1NC(=O)[C@@H](CCCNC(=N)N)NC(=O)[C@H](Cc2ccccc2)NC(=O)[C@H](Cc2ccccc2)NC(=O)[C@H](CCC(N)=O)NC(=O)[C@@H](CCCNC(=N)N)NC1=O) [SAR 20]	118 ± 5%
cyclo(FRFRFRQ) (cyclic) [SAR 42]	105 ± 14%
cyclo(FRFRRQ) (cyclic) [SAR 22]	15 ± 3%
cyclo(FRFRRRQ) (cyclic) [SAR 33]	132 ± 57%

Substance	Relative Cytosolic Delivery Efficiency
cyclo(FRRFFRQ) (cyclic) [SAR 40]	109 ± 11%
cyclo(FRRFFRRQ) (cyclic) [SAR 52]	127 ± 22%
cyclo(FRRFRFQ) (cyclic) [SAR 41]	101 ± 16%
cyclo(FRRFRQ) (cyclic) [SAR 23]	38 ± 10%
cyclo(FRRFRRQ) (cyclic) [SAR 29]	31 ± 3%
cyclo(FRRRFQ) (cyclic) [SAR 24]	25 ± 4%
cyclo(FRRRFRQ) (cyclic) [SAR 30]	20 ± 3%
cyclo(FfFRrRQ) (cyclo(F[dF]FR[dR]RQ); SMILES N=C(N)NCCC[C@@H]1NC(=O)[C@H](Cc2ccccc2)NC(=O)[C@@H](Cc2ccccc2)NC(=O)[C@H](Cc2ccccc2)NC(=O)[C@H](CCC(N)=O)NC(=O)[C@H](CCCNC(=N)N)NC(=O)[C@@H](CCCNC(=N)N)NC1=O) [SAR 57]	218 ± 9%
cyclo(FfFrRrQ) (cyclo(F[dF]F[dR]R[dR]Q); SMILES N=C(N)NCCC[C@@H]1NC(=O)[C@@H](CCCNC(=N)N)NC(=O)[C@H](Cc2ccccc2)NC(=O)[C@@H](Cc2ccccc2)NC(=O)[C@H](Cc2ccccc2)NC(=O)[C@H](CCC(N)=O)NC(=O)[C@@H](CCCNC(=N)N)NC1=O) [SAR 60]	205 ± 30%
cyclo(FΦRRRQ) (cyclo(F[2Nal]RRRRQ); SMILES N=C(N)NCCC[C@@H]1NC(=O)[C@H](CCCNC(=N)N)NC(=O)[C@H](CCCNC(=N)N)NC(=O)[C@H](Cc2ccc3ccccc3c2)NC(=O)[C@H](Cc2ccccc2)NC(=O)[C@H](CCC(N)=O)NC(=O)[C@H](CCCNC(=N)N)NC1=O) [SAR 1, control CPP, reference compound]	100 ± 6%
cyclo(FΦRrRrQ) (cyclo(F[2Nal]R[dR]R[dR]Q); SMILES N=C(N)NCCC[C@@H]1NC(=O)[C@H](Cc2ccc3ccccc3c2)NC(=O)[C@H](Cc2ccccc2)NC(=O)[C@H](CCC(N)=O)NC(=O)[C@@H](CCCNC(=N)N)NC(=O)[C@H](CCCNC(=N)N)NC(=O)[C@@H](CCCNC(=N)N)NC1=O) [SAR 55]	212 ± 42%
cyclo(FΦrRrQ) (cyclo(F[2Nal][dR]R[dR]Q); SMILES N=C(N)NCCC[C@@H]1NC(=O)[C@@H](CCCNC(=N)N)NC(=O)[C@H](Cc2ccc3ccccc3c2)NC(=O)[C@H](Cc2ccccc2)NC(=O)[C@H](CCC(N)=O)NC(=O)[C@@H](CCCNC(=N)N)NC1=O) [SAR 64]	63 ± 11%
cyclo(GΦRRRQ) [SAR 25] (cyclo(G[2Nal]RRRQ); SMILES N=C(N)NCCC[C@@H]1NC(=O)[C@H](Cc2ccc3ccccc3c2)NC(=O)CNC(=O)[C@H](CCC(N)=O)NC(=O)[C@H](CCCNC(=N)N)NC(=O)[C@H](CCCNC(=N)N)NC1=O)	49 ± 5%
cyclo(GΦRRRQ) [SAR 44] (cyclo(G[2Nal]RRRRQ); SMILES N=C(N)NCCC[C@@H]1NC(=O)[C@H](Cc2ccc3ccccc3c2)NC(=O)CNC(=O)[C@H](CCC(N)=O)NC(=O)[C@H](CCCNC(=N)N)NC(=O)[C@H](CCCNC(=N)N)NC(=O)[C@H](CCCNC(=N)N)NC1=O)	55 ± 5%
cyclo(Pip-Nal-Arg-Arg-arg-arg-glu) (cyclo([Pip][2Nal]RR[dR][dR][dE]); SMILES N=C(N)NCCC[C@@H]1NC(=O)[C@H](Cc2ccc3ccccc3c2)NC(=O)[C@@H]2CCCCN2C(=O)[C@@H](CCC(=O)O)NC(=O)[C@@H](CCCNC(=N)N)NC(=O)[C@@H](CCCNC(=N)N)NC(=O)[C@H](CCCNC(=N)N)NC1=O) [Pin1 16]	18 ± 2%
cyclo(Pip-Nal-Arg-Glu-arg-arg-glu) (cyclo([Pip][2Nal]RE[dR][dR][dE]); SMILES N=C(N)NCCC[C@@H]1NC(=O)[C@H](Cc2ccc3ccccc3c2)NC(=O)[C@@H]2CCCCN2C(=O)[C@@H](CCC(=O)O)NC(=O)[C@@H](CCCNC(=N)N)NC(=O)[C@@H](CCCNC(=N)N)NC(=O)[C@H](CCC(=O)O)NC1=O) [Pin1 15]	7.7 ± 0.5%
cyclo(Pip-Nal-Nal-Arg-arg-arg-Glu) [Pin1 18]	340 ± 130%
cyclo(Pip-Nal-Nal-Arg-arg-arg-glu) [Pin1 17]	506 ± 120%
cyclo(Pip-Nal-Phe-Arg-arg-arg-Glu) [Pin1 20]	15 ± 6%
cyclo(Pip-Nal-Phe-Arg-arg-arg-glu) (cyclo([Pip][2Nal]FR[dR][dR][dE]); SMILES N=C(N)NCCC[C@@H]1NC(=O)[C@H](Cc2ccccc2)NC(=O)[C@H](Cc2ccc3ccccc3c2)NC(=O)[C@@H]2CCCCN2C(=O)[C@@H](CCC(=O)O)NC(=O)[C@@H](CCCNC(=N)N)NC(=O)[C@@H](CCCNC(=N)N)NC1=O) [Pin1 19]	19 ± 16%
cyclo(Pip-Nal-nal-Arg-arg-arg-Glu) [Pin1 23]	215 ± 86%
cyclo(Pip-Nal-nal-Arg-arg-arg-glu) [Pin1 24]	141 ± 64%
cyclo(Pip-Nal-phe-Arg-arg-arg-Glu) (cyclo([Pip][2Nal][dF]R[dR][dR]E); SMILES N=C(N)NCCC[C@@H]1NC(=O)[C@@H](Cc2ccccc2)NC(=O)[C@H](Cc2ccc3ccccc3c2)NC(=O)[C@@H]2CCCCN2C(=O)[C@H](CCC(=O)O)NC(=O)[C@@H](CCCNC(=N)N)NC(=O)[C@@H](CCCNC(=N)N)NC1=O) [Pin1 22]	15 ± 6%
